Experimental data as given in patent US7977322B2 (Vertex Pharmaceuticals Incorporated, priority 2004, dated 2011).

Biological target: T1, ΔF508-CFTR (Homo sapiens, UniProt P13569, DEL508-508)
T1 construct: expressed in transfected cells
Assay: Membrane potential optical (FRET/VIPR) assay, identification of correction compounds
Format: cell-based
Conditions: Table 3, assay not given; for Emax: read-out: % Activity / % Efficacy (relative efficacy)
How it was run: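 NIH3T3 mouse fibroblasts stably expressing ΔF508-CFTR were exposed to compound for 16 h at 37° C in serum-free medium, then loaded with DiSBAC2(3)/CC2-DMPE. After addition of 10 μM forskolin plus 20 μM genistein in Cl⁻-free gluconate bath (pH 7.4), depolarization from Cl⁻ efflux was read by FRET (VIPR II).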

T1 sequence (P13569 with tags, fused parts or gaps DEL508-508): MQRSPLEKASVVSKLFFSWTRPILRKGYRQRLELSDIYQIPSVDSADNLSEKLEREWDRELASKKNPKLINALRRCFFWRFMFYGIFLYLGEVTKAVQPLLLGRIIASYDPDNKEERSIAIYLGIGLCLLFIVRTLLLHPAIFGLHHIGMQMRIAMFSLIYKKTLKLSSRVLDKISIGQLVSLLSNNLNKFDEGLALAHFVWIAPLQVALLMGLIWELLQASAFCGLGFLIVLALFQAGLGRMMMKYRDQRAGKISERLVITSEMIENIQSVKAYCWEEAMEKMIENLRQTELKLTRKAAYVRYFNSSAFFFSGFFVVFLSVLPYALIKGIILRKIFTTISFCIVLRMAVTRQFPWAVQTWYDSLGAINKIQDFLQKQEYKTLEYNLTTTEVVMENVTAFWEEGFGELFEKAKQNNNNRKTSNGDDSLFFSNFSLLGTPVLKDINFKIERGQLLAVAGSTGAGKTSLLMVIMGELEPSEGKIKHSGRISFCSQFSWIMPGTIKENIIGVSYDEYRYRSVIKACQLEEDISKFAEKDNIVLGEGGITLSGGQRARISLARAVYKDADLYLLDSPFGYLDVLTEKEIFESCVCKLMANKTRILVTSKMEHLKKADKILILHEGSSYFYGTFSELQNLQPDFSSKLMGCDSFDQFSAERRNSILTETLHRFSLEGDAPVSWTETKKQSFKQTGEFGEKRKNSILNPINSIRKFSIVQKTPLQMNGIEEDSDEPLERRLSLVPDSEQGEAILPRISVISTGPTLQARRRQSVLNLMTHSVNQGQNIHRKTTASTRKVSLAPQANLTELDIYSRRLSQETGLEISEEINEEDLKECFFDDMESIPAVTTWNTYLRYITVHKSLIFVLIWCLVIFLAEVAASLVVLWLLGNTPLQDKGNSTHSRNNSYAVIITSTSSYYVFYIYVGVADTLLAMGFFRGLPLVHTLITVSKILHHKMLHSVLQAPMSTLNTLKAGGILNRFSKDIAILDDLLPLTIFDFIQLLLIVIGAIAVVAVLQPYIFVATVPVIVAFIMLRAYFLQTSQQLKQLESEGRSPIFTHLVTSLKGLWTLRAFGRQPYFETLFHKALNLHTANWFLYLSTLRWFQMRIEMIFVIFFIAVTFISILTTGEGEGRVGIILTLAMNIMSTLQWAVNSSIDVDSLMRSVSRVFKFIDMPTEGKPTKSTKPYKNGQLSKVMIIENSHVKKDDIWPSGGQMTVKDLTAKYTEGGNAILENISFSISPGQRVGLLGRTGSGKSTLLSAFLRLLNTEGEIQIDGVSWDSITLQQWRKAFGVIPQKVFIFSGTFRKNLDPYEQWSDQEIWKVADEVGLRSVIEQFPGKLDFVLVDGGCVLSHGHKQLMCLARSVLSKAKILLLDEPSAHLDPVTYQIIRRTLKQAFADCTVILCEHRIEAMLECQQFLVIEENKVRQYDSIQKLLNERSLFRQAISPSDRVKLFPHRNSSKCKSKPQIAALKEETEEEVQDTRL

SMILES	EC50 [µM]	Emax [%]	% Activity / % Efficacy (relative efficacy)
COc1cccc(C(c2cnc(NC(=O)C3(c4ccc5c(c4)OCO5)CC3)s2)N2CCCCC2)c1 (stereo not drawn) [Example 344]	< 10	25 to 100	
COc1ccccc1C(c1cnc(NC(=O)C2(c3ccc4c(c3)OCO4)CC2)s1)N1CC[C@@H](O)C1 (stereo partly drawn) [Example 346]	10 to 25	> 100	
CC1CCc2c(sc(NC(=O)C3(c4ccc5c(c4)OCO5)CC3)c2C#N)C1 (stereo not drawn) [Example 296]	< 10	> 100	
O=C(Nc1ncc(Cc2cccc(Cl)c2)o1)C1(c2ccc3c(c2)OCO3)CC1 [Example 166]	< 10		+++ (“+++” means>100%)
O=C(Nc1ncc(C(c2ccccc2Cl)N2CC[C@@H](O)C2)s1)C1(c2ccccc2F)CC1 (stereo partly drawn) [Example 448]	10 to 25	> 100	
COc1ccc(C2(C(=O)Nc3nc(-c4ccc(Cl)cc4)cs3)CC2)cc1 [Example 78]	< 10		+++ (“+++” means>100%)
Cc1ccc(C2(C(=O)Nc3ncc(C(c4ccccc4Cl)N4CC[C@@H](O)C4)s3)CC2)cc1 (stereo partly drawn) [Example 422]	< 10	> 100	
COc1ccc(Cc2cnc(NC(=O)C3(c4ccc5c(c4)OCO5)CC3)s2)cc1 [Example 183]	< 10		+++ (“+++” means>100%)
COc1ccccc1C(c1cnc(NC(=O)C2(c3ccc4c(c3)OCO4)CC2)s1)N1CCCCC1 (stereo not drawn) [Example 349]	< 10	> 100	
O=C(Nc1ncc(C(c2ccccc2Cl)N2CC[C@@H](O)C2)s1)C1(c2ccccc2C(F)(F)F)CC1 (stereo partly drawn) [Example 442]	< 10	25 to 100	
COc1ccc(-c2csc(NC(=O)C3(c4ccc(OC)cc4)CC3)n2)cc1 [Example 79]	< 10		+++ (“+++” means>100%)
CCOC(=O)c1nc(NC(=O)C2(c3ccc(OC)cc3)CC2)sc1Cc1ccccc1OC [Example 195]	< 10		+++ (“+++” means>100%)
O=C(Nc1ncc(Cc2ccccc2Cl)s1)C1(c2ccc(OC(F)(F)F)cc2)CC1 [Example 174]	< 10		+++ (“+++” means>100%)
CC(=O)O[C@@H]1CCN(C(c2cnc(NC(=O)C3(c4ccc5c(c4)OCO5)CC3)s2)c2ccccc2Cl)C1 (stereo partly drawn) [Example 321]	< 10	> 100	
O=C(c1cnc(NC(=O)C2(c3ccc4c(c3)OCO4)CC2)s1)c1ccccc1Cl [Example 136]	< 10		+++ (“+++” means>100%)
COc1ccc(C2(C(=O)Nc3ncc(Cc4cccc(F)c4Cl)s3)CC2)cc1 [Example 89]	< 10	> 100	
O=C(Nc1ncc(C(NC[C@@H]2CCCO2)c2ccccc2Cl)s1)C1(c2ccc3c(c2)OCO3)CC1 (stereo partly drawn) [Example 434]	< 10	> 100	
CC(C)C[C@H](CO)NC(c1cnc(NC(=O)C2(c3ccc4c(c3)OCO4)CC2)s1)c1cc(F)ccc1F (stereo partly drawn) [Example 480]	< 10	> 100	
CCCc1nc(NC(=O)C2(c3ccc4c(c3)OCO4)CC2)sc1C(=O)OCC [Example 108]	< 10	> 100	
O=C(Nc1ncc(C(c2cc(F)ccc2F)N2CC[C@@H](O)C2)s1)C1(c2ccc3c(c2)OCO3)CC1 (stereo partly drawn) [Example 474]	< 10	> 100	
O=C(Nc1ncc(Cc2ccccc2Cl)s1)C1(c2ccc(N3CCOCC3)cc2)CC1 [Example 313]	10 to 25	25 to 100	
O=C(Nc1ncc(Sc2ccc(Cl)cc2)s1)C1(c2ccc3c(c2)OCO3)CC1 [Example 103]	25 to 60		++ (“++” means between 25% to 100%)
CN1CCN(c2cccc(C3(C(=O)Nc4ncc(Cc5ccccc5Cl)s4)CC3)c2)CC1 [Example 314]	< 10	25 to 100	
O=C(Nc1ncc(Cc2cccc(F)c2Cl)s1)C1(c2ccc3c(c2)OCO3)CC1 [Example 159]	< 10		+++ (“+++” means>100%)
COc1ccc(C2(C(=O)Nc3nc(-c4ccc(C)cc4)cs3)CC2)cc1 [Example 77]	< 10		+++ (“+++” means>100%)
COc1cccc(C2(C(=O)Nc3ncc(C(c4ccccc4Cl)N4CC[C@@H](O)C4)s3)CC2)c1 (stereo partly drawn) [Example 452]	< 10	> 100	
O=C(Nc1ncc(C(NC2CCCCC2)c2ccccc2Cl)s1)C1(c2ccc3c(c2)OCO3)CC1 (stereo not drawn) [Example 411]	< 10	> 100	
Cn1nc(-c2ccc(Cl)c(Cl)c2)cc1NC(=O)C1(c2ccc3c(c2)OCO3)CC1 [Example 287]	< 10	> 100	
COc1ccccc1Cc1cnc(NC(=O)C2(c3ccc(Cl)cc3)CC2)s1 [Example 32]	< 10	> 100	
CC(C)C[C@H](CO)NC(c1cnc(NC(=O)C2(c3ccc4c(c3)OCO4)CC2)s1)c1ccccc1F (stereo partly drawn) [Example 482]	< 10	> 100	
